The results in this text go back to publication PMC9045277, “Quercetin Reduces the Virulence of S. aureus by Targeting ClpP to Protect Mice from MRSA-Induced Lethal Pneumonia” (Microbiology Spectrum, 2022).

Values after ≈ are worked out from the molar mass of the structure shown.

In assay [1] the target is T1, ClpP (Staphylococcus aureus, UniProt Q2G036).
T1 construct: pET28a-clpP, purified from E. coli BL21(DE3)
Kind of assay: biochemical. To be noted: read-out: Relative inhibition rate (%).
Description: This property was exploited to screen the available laboratory library of small molecules for ClpP inhibitors. First, 10 μM ClpP and 64 μg/mL of the small molecule compound were added to a black opaque 96-well plate containing 100 μL of ClpP buffer (100 mM HEPES,100 mM NaCl) and incubated for 1 h at room temperature. Afterward, 100 μM Suc-LeuTyr-AMC (Cat number S1153, Sigma-Aldrich, St. Louis, MO, USA) was added to 96-well plates and incubated for 30 min at 32°C. Finally, the fluorescence values were detected by Infinite M200 (360 nm excitation/465 nm emission). […] Since the fluorescent substrate Suc-LY-AMC can be used to detect the activity of ClpP protein, we screened a library of natural products available in our laboratory.

Assay [2] relates to T2, S. aureus USA300 (MRSA).
T2 construct: USA300
Kind of assay: microbe, parasite or virus in culture. The arrangement: MIC, growth inhibition of MRSA USA300. To be noted: Staphylococcus aureus, read-out: MIC (μg/mL).

For assay [3], the target named is T1, ClpP. Kind of assay: ClpP peptidase assay with fluorescent substrate Suc-LY-AMC (positive-control inhibitor). The format is biochemical.
Assay [4] has as its target T1, ClpP. Kind of assay: LSPR (OpenSPR) with immobilized ClpP; supported by TSA, CETSA in lysate, and Suc-LY-AMC inhibition (IC50 […]). In kind it is binding.
Assay [5] deals with T3, 6×His-ClpX protein of S. aureus (S. aureus, UniProt Q2FXQ7 1-420).
T3 construct: source: E. coli, purified
T3 sequence (Q2FXQ7 whole entry): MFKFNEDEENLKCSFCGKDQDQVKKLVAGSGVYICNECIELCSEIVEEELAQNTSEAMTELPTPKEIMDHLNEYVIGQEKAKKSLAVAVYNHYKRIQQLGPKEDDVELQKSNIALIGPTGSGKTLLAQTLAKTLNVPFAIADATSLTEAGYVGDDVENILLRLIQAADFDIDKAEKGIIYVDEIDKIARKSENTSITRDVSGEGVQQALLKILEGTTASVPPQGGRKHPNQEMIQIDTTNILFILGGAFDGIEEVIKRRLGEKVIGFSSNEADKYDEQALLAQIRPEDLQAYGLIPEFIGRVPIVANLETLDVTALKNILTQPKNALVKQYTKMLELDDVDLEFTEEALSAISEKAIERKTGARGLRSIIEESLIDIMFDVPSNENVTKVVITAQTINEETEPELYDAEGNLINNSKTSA
Kind of assay: pull-down; 6×His-ClpX and label-free ClpP mixed with 2 mM ATPγS (with DMSO, quercetin or ADEP4), overnight at 4°C; passed through Ni-NTA, washed with binding buffer (40 mM Tris, 200 mM NaCl, pH 8.5), eluted with 400 mM imidazole; SDS-PAGE. To be noted: both partners purified.
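Wherever Relative inhibition rate (%) is given: ClpP peptidase activity measured as fluorescence (ex 360 nm, em 465 nm) from cleavage of Suc-LY-AMC substrate at 100 µM, 30 min at 32°C.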

In general, inhibition refers to the share of the control response that was lost under treatment. With `CC(C)=CCc1c(O)ccc(C(=O)/C=C/c2ccc(O)cc2)c1O` [isobavachalcone], the inhibition at 64 µg/mL in assay [1] was 97.6 ± 0.26%. For the same molecule, the MIC in assay [2] came to 8 µg/mL (≈ 24.7 µM). For the molecule `O=c1c(O)c(-c2cc(O)c(O)c(O)c2)oc2cc(O)cc(O)c12` [myricetin], the “ClpP peptidase assay with fluorescent substrate Suc-LY-AMC (positive-control inh)” value in assay [3] was “the inhibitory ability of quercetin and the positive-control myricetin on ClpP activity were the closest”. One may read the Kd as the free concentration of one partner at which half of the binding sites on the other are occupied at equilibrium, for simple one-to-one binding. A lower Kd goes with tighter binding. Consider `O=c1c(O)c(-c2ccc(O)c(O)c2)oc2cc(O)cc(O)c12` [quercetin], for which the inhibition at 64 µg/mL in assay [1] was determined as 74.3 ± 2.67%. Also, the MIC in assay [2] was found to be 128 µg/mL (≈ 424 µM). Further, the Kd in assay [4] is 197 nM. Consider `O=c1c(O[C@@H]2O[C@H](CO)[C@@H](O)[C@H](O)[C@H]2O)c(-c2ccc(O)cc2)oc2cc(O)cc(O)c12` [Astragalin], for which the inhibition at 64 µg/mL in assay [1] is 51.3 ± 1.73%. On the same count and under the same terms, the figure for `O=c1cc(-c2ccc(O)c(O)c2)oc2cc(O)c([C@@H]3O[C@H](CO)[C@@H](O)[C@H](O)[C@H]3O)c(O)c12` [Isoorientin] is 50.2 ± 1.58%. For the molecule `COC(=O)[C@@]12OC[C@]34[C@H]([C@@H](O)[C@@H]1O)[C@@]1(C)CC(=O)C(O)=C(C)[C@@H]1C[C@H]3OC(=O)[C@H](OC(C)=O)[C@@H]24` [Bruceine B], the inhibition at 64 µg/mL in assay [1] was found to be 1.6 ± 2.71%.

Regarding `COc1cc(-c2coc3cc(O[C@@H]4O[C@H](CO)[C@@H](O)[C@H](O)[C@H]4O)c(OC)c(O)c3c2=O)cc(O)c1OC` [Iridin], the inhibition at 64 µg/mL in assay [1] amounted to 14.2 ± 1.39%.

`C[C@@H]1O[C@@H](OC[C@H]2O[C@@H](Oc3cc(O)c4c(=O)cc(-c5ccc(O)cc5)oc4c3)[C@H](O[C@@H]3O[C@@H](C)[C@H](O)[C@@H](O)[C@H]3O)[C@@H](O)[C@@H]2O)[C@H](O)[C@H](O)[C@H]1O` [Ligustroflavone]: the inhibition at 64 µg/mL in assay [1] was determined as 26.6 ± 1.16%. With `C=C(C)[C@H](CC=C(C)C)Cc1c(O)cc(O)c2c1O[C@H](c1ccc(O)cc1O)CC2=O` [Nor-kurarinone], in assay [1], the inhibition at 64 µg/mL stood at 83.3 ± 0.02%. In assay [2], the MIC was 2 µg/mL (≈ 4.71 µM). With `C[C@@H]1O[C@@H](O[C@H]2[C@H](Oc3cc(O)c4c(=O)cc(-c5ccc(O)cc5)oc4c3)O[C@H](CO)[C@@H](O)[C@@H]2O)[C@H](O)[C@H](O)[C@H]1O` [Rhoifolin], in assay [1], the inhibition at 64 µg/mL came out at 46.7 ± 1.3%. For the molecule `COc1cc(O)c2c(=O)c(O[C@@H]3O[C@H](CO)[C@@H](O)[C@H](O)[C@H]3O)c(-c3ccc(O[C@@H]4O[C@H](CO)[C@@H](O)[C@H](O)[C@H]4O)cc3)oc2c1` [Complanatuside], in assay [1], the inhibition at 64 µg/mL worked out at 12.3 ± 0.47%. Turning to `COc1cc(-c2oc3cc(OC)c(OC)c(O)c3c(=O)c2OC)ccc1O` [Chrysosplenetin], the inhibition at 64 µg/mL in assay [1] was determined as 52.4 ± 0.36%. As to `C[C@@H]1C(=O)O[C@H](C)[C@H]1C[C@@H](O)[C@](C)(O)[C@H]1CC[C@@]2(O)C3=CC(=O)[C@@H]4C[C@@H](O)[C@@H](O)C[C@]4(C)[C@H]3CC[C@]12C` [Cyasterone], in assay [1], the inhibition at 64 µg/mL stood at 25.6 ± 2.65%. On to `COc1ccc(-c2oc3cc(OC)c(OC)c(O)c3c(=O)c2OC)cc1O` [Casticin], for which the inhibition at 64 µg/mL in assay [1] stood at 56.8 ± 1.22%. `COc1cc2c(=O)c(-c3ccc(O)cc3)coc2cc1O[C@@H]1O[C@H](CO)[C@@H](O)[C@H](O)[C@H]1O` [Glycitin]: the inhibition at 64 µg/mL in assay [1] was 18.5 ± 1.26%. In the case of `COc1ccc(CCC(=O)c2ccc(O)cc2)c(OC)c1` [Loureirin A], in assay [1], the inhibition at 64 µg/mL turned out to be 56.5 ± 2.47%.

B1: Caseinolytic peptidase P (ClpP) of S. aureus, label-free (His tag excised) (enzyme)
chain: MNLIPTVIETTNRGERAYDIYSRLLKDRIIMLGSQIDDNVANSIVSQLLFLQAQDSEKDIYLYINSPGGSVTAGFAIYDTIQHIKPDVQTICIGMAASMGSFLLAAGAKGKRFALPNAEVMIHQPLGGAQGQATEIEIAANHILKTREKLNRILSERTGQSIEKIQKDTDRDNFLTAEEAKEYGLIDEVMVPETK
notes: also called casein hydrolase P; label-free ClpP protein; source: E. coli BL21 (DE3), pET28a-clpP, purified (His-Trap); copies: 14
As to B1, the binding result in assay [5] was “binds”.
